In patent US20080214582A1, “Purine Derivatives as Inhibitors of Receptor Tyrosine Kinase Activity” (priority 2005, published 2008):

Assays:
Tie-2 kinase = Tie-2 kinase (Homo sapiens, UniProt Q02763); test: Tie-2 kinase inhibition (flashplate, poly(Glu,Tyr), 33P-ATP); type: biochemical
Method: The TIE-2 tests can be carried out, for example, analogously to the methods indicated in WO 02/44156.
The assay determines the inhibiting activity of the substances to be tested in the phosphorylation of the substrate poly(Glu, Tyr) by Tie-2 kinase in the presence of radioactive ^33P-ATP. The phosphorylated substrate binds to the surface of a “flashplate” microtitre plate during the incubation time. After removal of the reaction mixture, the microtitre plate is washed a number of times and the radioactivity on its surface is subsequently measured. An inhibiting effect of the substances to be measured results in lower radioactivity compared with an undisturbed enzymatic reaction.

VEGFR (KDR) = molecular target: T1, VEGFR (KDR) (Homo sapiens, UniProt P35968); test: VEGF receptor kinase assay (pEY substrate, 33P incorporation); type: biochemical; settings: kinase inhibition
T1 construct: cloning the cytoplasmic domain of the KDR kinase as an in frame fusion at the carboxyl terminus of the GST gene; made in house; host or cells: Spodoptera frugiperda Sf21 insect cells, baculovirus vector pAcG2T
T1 sequence (P35968 786-1356 limits assumed): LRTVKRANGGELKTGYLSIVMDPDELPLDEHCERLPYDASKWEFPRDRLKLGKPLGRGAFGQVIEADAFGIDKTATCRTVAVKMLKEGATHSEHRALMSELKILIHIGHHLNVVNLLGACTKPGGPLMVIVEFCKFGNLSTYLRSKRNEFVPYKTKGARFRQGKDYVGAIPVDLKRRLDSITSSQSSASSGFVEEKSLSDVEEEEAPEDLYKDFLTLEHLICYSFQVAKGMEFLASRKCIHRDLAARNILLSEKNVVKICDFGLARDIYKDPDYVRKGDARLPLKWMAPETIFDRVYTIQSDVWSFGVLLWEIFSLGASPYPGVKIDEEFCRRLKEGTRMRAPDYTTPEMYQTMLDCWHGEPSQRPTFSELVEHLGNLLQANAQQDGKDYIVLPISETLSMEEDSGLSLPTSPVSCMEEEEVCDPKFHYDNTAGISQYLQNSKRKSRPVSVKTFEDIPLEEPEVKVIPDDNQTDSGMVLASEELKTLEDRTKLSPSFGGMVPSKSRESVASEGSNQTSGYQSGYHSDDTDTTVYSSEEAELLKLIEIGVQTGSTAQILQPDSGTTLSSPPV
Method: VEGF receptor kinase activity is measured by incorporation of radiolabelled phosphate into 4:1 polyglutamic acid/tyrosine substrate (pEY). The phosphorylated pEY product is trapped on a filter membrane and the incorporation of radiolabelled phosphate is quantified by scintillation counting.
The intracellular tyrosine kinase domains of human KDR (Terman, B. I. et al. Oncogene (1991) Vol. 6, pp. 1677-1683.) and Flt-1 (Shibuya, M. et al. Oncogene (1990) Vol. 5, pp. 519-524) were cloned as glutathione S-transferase (GST) gene fusion proteins. This was accomplished by cloning the cytoplasmic domain of the KDR kinase as an in frame fusion at the carboxyl terminus of the GST gene. Soluble recombinant GST-kinase domain fusion proteins were expressed in Spodoptera frugiperda (Sf21) insect cells (Invitrogen) using a baculovirus expression vector (pAcG2T, Pharmingen).
1. Sf21 cells were infected with recombinant virus at a multiplicity of infection of 5 virus particles/cell and grown at 27° C. for 48 hours. 2. All steps were performed at 4° C. Infected cells were harvested by centrifugation at 1000×g and lysed at 4° C. for 30 minutes with 1/10 volume of lysis buffer followed by centrifugation at 100000×g for 1 hour. The supernatant was then passed over a glutathione Sepharose acid (Pharmacia) equilibrated with lysis buffer and washed with 5 volumes of the same buffer followed by 5 volumes of wash buffer. Recombinant GST-KDR protein was eluted with wash buffer/10 mM reduced glutathione (Sigma) and dialysed against dialysis buffer.
1. Add 5 μl of inhibitor or control to the assay in 50% DMSO. 2. Add 35 μl of reaction mixture containing 5 μl of 10× reaction buffer, 5 μl of 25 mM ATP/10 μCi[^33P]ATP (Amersham) and 5 μl of 10× substrate. 3. Start the reaction by the addition of 10 μl of KDR (25 nM) in enzyme dilution buffer. 4. Mix and incubate at room temperature for 15 minutes. 5. Stop the reaction by the addition of 50 μl of stop solution. 6. Incubate at 4° C. for 15 minutes. 7. Transfer a 90 μl aliquot to filter plate. 8. Aspirate and wash 3 times with wash solution. 9. Add 30 μl of scintillation cocktail, seal plate and count in a Wallace Microbeta scintillation counter.

Tie-2 kinase, sequence (Q02763 23-1124): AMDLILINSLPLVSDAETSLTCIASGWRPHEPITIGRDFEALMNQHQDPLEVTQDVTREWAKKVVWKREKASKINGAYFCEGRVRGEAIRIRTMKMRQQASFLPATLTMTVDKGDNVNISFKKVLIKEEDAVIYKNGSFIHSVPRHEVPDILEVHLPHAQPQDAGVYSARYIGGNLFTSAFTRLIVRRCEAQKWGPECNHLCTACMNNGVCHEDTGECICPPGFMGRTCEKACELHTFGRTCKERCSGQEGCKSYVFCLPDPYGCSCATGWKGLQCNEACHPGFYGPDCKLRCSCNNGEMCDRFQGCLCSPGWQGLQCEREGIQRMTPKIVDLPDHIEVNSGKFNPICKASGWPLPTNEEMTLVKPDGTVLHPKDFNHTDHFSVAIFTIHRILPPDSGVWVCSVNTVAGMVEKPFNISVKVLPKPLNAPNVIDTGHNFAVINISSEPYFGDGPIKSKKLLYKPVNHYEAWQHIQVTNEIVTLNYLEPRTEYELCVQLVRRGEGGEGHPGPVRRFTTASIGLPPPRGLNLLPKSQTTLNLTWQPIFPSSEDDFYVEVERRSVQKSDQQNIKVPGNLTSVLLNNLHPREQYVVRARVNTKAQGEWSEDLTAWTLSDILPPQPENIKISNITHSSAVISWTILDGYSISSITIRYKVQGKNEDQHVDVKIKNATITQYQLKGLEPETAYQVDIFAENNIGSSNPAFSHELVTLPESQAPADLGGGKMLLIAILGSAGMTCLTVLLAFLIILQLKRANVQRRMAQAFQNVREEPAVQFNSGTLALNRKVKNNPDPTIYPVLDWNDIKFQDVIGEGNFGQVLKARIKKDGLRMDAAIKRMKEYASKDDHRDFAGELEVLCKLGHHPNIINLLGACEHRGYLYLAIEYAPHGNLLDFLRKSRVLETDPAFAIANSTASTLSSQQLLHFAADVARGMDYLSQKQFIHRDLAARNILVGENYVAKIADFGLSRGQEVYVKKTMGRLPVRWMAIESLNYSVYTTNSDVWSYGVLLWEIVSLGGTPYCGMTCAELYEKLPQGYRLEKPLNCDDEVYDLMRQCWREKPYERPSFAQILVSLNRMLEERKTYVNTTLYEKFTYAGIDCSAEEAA

SMILES | IC50 (Tie-2 kinase) | IC50 (VEGFR (KDR))
Nc1ncnc2c1ncn2-c1ccc(NC(=O)Nc2ccc(OC3CCNC3)c(C(F)(F)F)c2)cc1 (stereo not shown) [Compound 11, 1-[4-(6-aminopurin-9-yl)phenyl]-3-[4-(pyrrolidin-3-yloxy)-3-trifluoromethylphenyl]urea] | 110 nM | 4.4 nM
Nc1ncnc2c1ncn2-c1ccc(NC(=O)Nc2cc(C(F)(F)F)ccc2OC2CCNC2)cc1 (stereo not shown) [Compound 1, 1-[4-(6-aminopurin-9-yl)phenyl]-3-[2-(pyrrolidin-3-yloxy)-5-trifluoromethylphenyl]urea] | 34.3 nM | 88 nM
CC(C)(C)c1cc(NC(=O)Nc2ccc(-n3cnc4c(N)ncnc43)cc2)no1 [Compound 15, 1-[4-(6-aminopurin-9-yl)phenyl]-3-(5-tert-butylisoxazol-3-yl)urea] | 19.5 nM | 2 nM
Nc1ncnc2c1ncn2-c1ccc(NC(=O)Nc2cc(C(F)(F)F)ccc2-n2cncn2)cc1 [Compound 9, 1-[4-(6-aminopurin-9-yl)phenyl]-3-(2-[1,2,4]triazol-1-yl-5-trifluoromethylphenyl)urea] | 12.5 nM | 7.7 nM
Nc1ncnc2c1ncn2-c1ccc(NC(=O)Nc2cc(C(F)(F)F)ccn2)cc1 [Compound 6, 1-[4-(6-aminopurin-9-yl)phenyl]-3-(4-trifluoromethylpyridin-2-yl)urea] | 100 nM | 4.6 nM
Nc1ncnc2c1ncn2-c1ccc(NC(=O)Nc2cc(C(F)(F)F)ccc2F)cc1 [Compound 4, 1-[4-(6-aminopurin-9-yl)phenyl]-3-(2-fluoro-5-trifluoromethylphenyl)urea] | 49 nM | 5.7 nM
Nc1ncnc2c1ncn2-c1ccc(NC(=O)Nc2cccc(C(F)(F)F)c2)cc1 [Compound 2, 1-[4-(6-aminopurin-9-yl)phenyl]-3-(3-trifluoromethylphenyl)urea] | 14 nM | 3.6 nM
Nc1ncnc2c1ncn2-c1ccc(NC(=O)Nc2cccc(OC(F)(F)F)c2)cc1 [Compound 5, 1-[4-(6-aminopurin-9-yl)phenyl]-3-(3-trifluoromethoxyphenyl)urea] | 35 nM | 5 nM
